Where two headings read alike, the source gives them in different places.
Key:
[1] = biological target: hERG channel (Homo sapiens (Human), UniProt Q12809); experiment: hERG channel inhibition assay (patch-clamp, CHOhERG cells); format: cell-based; conditions: for IC20: human, CHO cells stably expressing hERG (CHOhERG)
Excerpt: The hERG K^+ channels were cloned in humans and stably expressed in a CHO (Chinese hamster ovary) cell line. CHOhERG cells (obtained from Roche Palo Alto LLC Cell Core Facilities) were used for patch-clamp (voltage-clamp, whole-cell) experiments. Cells were stimulated by a voltage pattern to activate hERG channels and conduct IKhERG currents (rapid delayed outward rectifier potassium current of the hERG channel). After the cells were stabilized in an internal solution that contains (in mM): KCl 10, KF 100, NaCl 10, HEPES 10, EGTA 20, pH=7.2 with KOH (osmolarity 260-300 mOsm) for a few minutes, the amplitude and kinetics of IKhERG were recorded at a stimulation frequency of 0.1 Hz (6 bpm). Thereafter, the test compound was dissolved in extracellular solution that contains (in mM): NaCl 150, KCl 4, CaCl2 1.2, MgCl2 1, HEPES 10, glucose 5, pH 7.2-7.4 with NaOH (osmolarity 290-330 mOsm), and was added to the preparation at increasing concentrations. For each concentration, an attempt was made to reach a steady-state effect, usually, this was achieved within 3-10 min at which time the next highest concentration was applied. The amplitude and kinetics of IKhERG are recorded in each concentration of the drug which were compared to the control values (taken as 100%).

[2] = test system: STING (IFN-β in hPBMC); experiment: hPBMC cytokine functional assay (IFN-β decrease after Baculovirus stimulation); format: cell-based; conditions: Homo sapiens, Baculovirus MOI 40, 24 hours, read-out: hPBMC_IC50
Procedure, shortened: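 Thawed hPBMC (70K cells/well) rested ≥3 h, then dosed with compound (final 0.5% DMSO) and infected with Baculovirus at MOI 40. Secreted IFN-β read by HTRF after 24 h at 37 °C. Cell viability checked in parallel by CellTiter-Glo.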

[3] = Single dose pharmacokinetics (SDPK) study in male C57BL/6J mice; format: in vivo; conditions: mouse
Experimental: Single Dose Pharmacokinetics (SDPK) Study in Male C57BL/6J Mice Pharmacokinetic properties of compounds were assessed by single dose PK studies in Male C57BL/6J Mice (vendor: WTLH-BJ). Briefly, two groups of animals were administered a single dose of respective compound intravenously (IV, bolus) at 1 mg/kg or orally (PO, by gavage) at 10 mg/kg. Blood samples were collected via Jugular vein at 5 min (only for IV), 15 min, 30 min, 1 h, 2 h, 4 h, 7 h and 24 h post-dose. Blood samples were placed into pre-chilled commercial EDTA-K2 tubes (vendor: Jiangsu Kangjian medical supplies co., LTD) and centrifuged at 3,200 g for 10 min at 4° C. to separate plasma from the samples. After centrifugation, the resulting plasma was transferred to clean tubes for bioanalysis with LC/MS/MS. The pharmacokinetic parameters were calculated using noncompartmental analysis. The volume of distribution (Vss), half-life (T1/2) and clearance (CL) were obtained based on the plasma concentration-time curve after IV dose. The peak concentration (Cmax) was recorded directly from experimental observations after PO dose. The area under the plasma concentration-time curve (AUCo-last) was calculated using the linear trapezoidal linear interpolation rule up to the last detectable concentration. The bioavailability (F) was calculated based on the dose normalized AUCo-last after IV and PO dose.

[4] = biological target: human stimulator of interferon genes (STING) (139-379) (Homo sapiens (Human), UniProt Q86WV6); experiment: Microliter plate-based TR-FRET competition-binding assay for binders of STING; conditions: Alexa488 probe, read-out: FRET_IC50
Sequence of human stimulator of interferon genes (STING) (139-379) (Q86WV6 139-379): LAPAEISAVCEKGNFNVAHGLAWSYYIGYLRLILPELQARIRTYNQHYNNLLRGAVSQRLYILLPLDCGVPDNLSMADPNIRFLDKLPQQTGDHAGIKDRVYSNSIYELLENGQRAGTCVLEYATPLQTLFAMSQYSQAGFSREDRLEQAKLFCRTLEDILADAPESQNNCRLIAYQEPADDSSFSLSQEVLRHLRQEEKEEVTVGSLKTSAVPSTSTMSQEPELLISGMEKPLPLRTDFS
Procedure, shortened: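 E. coli-expressed C-terminal flag-tagged STING (139-379) at 2.5 nM with 2.5 nM Tb-anti-Flag and 250 nM Alexa488-labelled active-site probe, 30 min at room temperature. TR-FRET 520/485 nm ratio after 320 nm excitation. Percent inhibition calculated relative to the 2′3′cGAMP positive control.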

[5] = Metabolic (liver microsomal) stability assay; conditions: human liver microsomes, 1 μM test compound
Experimental: The liver microsomal stability assay is used for early assessment of metabolic stability of a test compound in liver microsomes.
Liver microsomes were preincubated with test compound for 10 minutes at 37° C. in 100 mM potassium phosphate buffer, pH 7.4. The reactions were initiated by adding NADPH regenerating system. The final incubation mixtures contained 1 μM test compound, 0.5 mg/mL liver microsomal protein, 1 mM MgCl2, 1 mM NADP, 1 unit/mL isocitric dehydrogenase and 6 mM isocitric acid in 100 mM potassium phosphate buffer, pH 7.4. After incubation times of 0, 3, 6, 9, 15 and 30 minutes at 37° C., 300 μL of cold acetonitrile (including internal standard) was added to 100 μL incubation mixture to terminate the reaction. Following precipitation and centrifugation, the amount of compound remaining in the samples were determined by LC-MS/MS. Controls of no NADPH regenerating system at zero and 30 minutes were also prepared and analyzed.

Sequence of hERG channel (Q12809 whole entry): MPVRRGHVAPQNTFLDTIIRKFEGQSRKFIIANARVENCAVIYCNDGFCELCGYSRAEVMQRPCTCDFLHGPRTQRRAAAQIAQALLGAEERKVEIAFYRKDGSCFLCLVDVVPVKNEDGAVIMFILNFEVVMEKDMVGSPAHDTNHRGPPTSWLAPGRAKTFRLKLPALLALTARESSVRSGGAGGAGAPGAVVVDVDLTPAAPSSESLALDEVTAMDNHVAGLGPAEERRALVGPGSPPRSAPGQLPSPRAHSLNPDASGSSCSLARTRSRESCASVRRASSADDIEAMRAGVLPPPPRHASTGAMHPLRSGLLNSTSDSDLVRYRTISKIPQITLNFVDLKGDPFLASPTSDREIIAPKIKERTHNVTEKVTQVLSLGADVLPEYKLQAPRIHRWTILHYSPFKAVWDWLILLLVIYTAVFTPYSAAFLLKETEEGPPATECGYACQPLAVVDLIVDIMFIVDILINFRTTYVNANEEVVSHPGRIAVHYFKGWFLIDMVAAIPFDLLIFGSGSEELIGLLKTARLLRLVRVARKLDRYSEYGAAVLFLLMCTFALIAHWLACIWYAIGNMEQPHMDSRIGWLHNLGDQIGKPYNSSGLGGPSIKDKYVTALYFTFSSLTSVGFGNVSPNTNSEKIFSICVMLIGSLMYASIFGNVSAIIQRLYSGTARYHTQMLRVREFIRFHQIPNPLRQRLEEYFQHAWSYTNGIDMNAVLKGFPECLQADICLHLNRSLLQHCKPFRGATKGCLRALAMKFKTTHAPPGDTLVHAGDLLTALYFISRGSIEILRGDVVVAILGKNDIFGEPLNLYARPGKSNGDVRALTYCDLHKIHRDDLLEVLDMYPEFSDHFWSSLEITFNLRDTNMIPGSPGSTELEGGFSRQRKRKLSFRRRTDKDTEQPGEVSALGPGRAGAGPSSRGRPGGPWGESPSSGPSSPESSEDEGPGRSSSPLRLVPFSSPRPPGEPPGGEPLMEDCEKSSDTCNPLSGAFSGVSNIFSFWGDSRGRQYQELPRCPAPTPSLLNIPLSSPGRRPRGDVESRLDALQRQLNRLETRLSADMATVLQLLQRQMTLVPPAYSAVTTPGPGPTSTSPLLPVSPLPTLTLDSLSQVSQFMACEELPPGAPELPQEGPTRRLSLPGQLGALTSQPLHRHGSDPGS

Compound	IC50 [1] [nM]	IC20 [1] [nM]	IC50 [2] [nM]	clearance ([3]; male, C57BL/6J, plasma, IV 1 mg/kg) [mL/min/kg]	AUC ([3]; male, C57BL/6J, plasma, IV 1 mg/kg, read-out: IV AUCo-last) [ng·h/mL]	half-life ([3]; male, C57BL/6J, plasma, IV 1 mg/kg, read-out: T½ (converted)) [min]	Vd ([3]; male, C57BL/6J, plasma, IV 1 mg/kg, read-out: Vss) [L/kg]	Cmax ([3]; male, C57BL/6J, plasma, PO 10 mg/kg) [ng/mL]	AUC ([3]; male, C57BL/6J, plasma, PO 10 mg/kg, read-out: PO AUCo-last) [ng·h/mL]	F ([3]; dose normalized AUCo-last after IV 1 mg/kg and PO 10 mg/kg) [%]	IC50 [4] [nM]	Clearance of human microsome [5] [mL/min/kg]
COc1cc(F)ccc1-n1ncc2c(N3C[C@@H]4C[C@H]3C(=O)N(C)CCCc3c5c(cccc5nn3C)-c3ccnc(n3)N4)ncnc21 [Example 6, (8S,11S)-10-[1-(4-fluoro-2-methoxy-phenyl)pyrazolo[3,4-d]pyrimidin-4-yl]-13,18-dimethyl-5,7,10,13,18,19,26-heptazapentacyclo[15.6.1.1^2,6.1^8,11.0^20,24]hexacosa-1(23),2,4,6(26),17(24),19,21-heptaen-12-one]	> 20000	> 10000	588	14.5	1120	48	0.9	2990	4740	42	5	15.7
COc1cc(F)ccc1-n1ncc2c(N3C[C@@H]4C[C@H]3C(=O)N(CCCN3CCOCC3)CCCc3c5c(cccc5nn3C)-c3cccc(n3)N4)ncnc21 [Example 43, (8S,11S)-10-[1-(4-fluoro-2-methoxy-phenyl)pyrazolo[3,4-d]pyrimidin-4-yl]-18-methyl-13-(3-morpholinopropyl)-7,10,13,18,19,26-hexazapentacyclo[15.6.1.1^2,6.1^8,11.0^20,24]hexacosa-1(23),2(26),3,5,17(24),19,21-heptaen-12-one]	> 20000	> 10000	292								3.5	12.0
Cn1nc2cccc3c2c1CCCNC(=O)[C@@H]1C[C@@H](CN1c1ncnc2c1cnn2-c1ccc(F)cc1F)Oc1ccnc-3c1 [Example 10, (8S,11S)-10-[1-(2,4-difluorophenyl)pyrazolo[3,4-d]pyrimidin-4-yl]-18-methyl-7-oxa-3,10,13,18,19-pentazapentacyclo[15.6.1.1^2,6.1^8,11.0^20,24]hexacosa-1(23),2(26),3,5,17(24),19,21-heptaen-12-one]	> 10000	8200									5.1	8.3
Cn1nc2cccc3c2c1CCCN(CCCn1cnnn1)C(=O)[C@@H]1C[C@@H](CN1c1ncnc2c1cnn2-c1ccc(F)cc1F)Oc1cccc-3c1 [Example 36, (8S,11S)-10-[1-(2,4-difluorophenyl)pyrazolo[3,4-d]pyrimidin-4-yl]-18-methyl-13-[3-(tetrazol-1-yl)propyl]-7-oxa-10,13,18,19-tetrazapentacyclo[15.6.1.1^2,6.1^8,11.0^20,24]hexacosa-1(23),2(26),3,5,17(24),19,21-heptaen-12-one]			1570								1.3	11.9
CN1CC2CC1CN2CCCN1CCCc2c3c(cccc3nn2C)-c2cccc(c2)O[C@H]2C[C@@H](C1=O)N(c1ncnc3c1cnn3-c1ccc(F)cc1F)C2 [Example 34, (8S,11S)-10-[1-(2,4-difluorophenyl)pyrazolo[3,4-d]pyrimidin-4-yl]-18-methyl-13-[3-(5-methyl-2,5-diazabicyclo[2.2.1]heptan-2-yl)propyl]-7-oxa-10,13,18,19-tetrazapentacyclo[15.6.1.1^2,6.1^8,11.0^20,24]hexacosa-1(23),2(26),3,5,17(24),19,21-heptaen-12-one]			2490								7	6.1
CN1CCN(CCCN2CCCc3c4c(cccc4nn3C)-c3cccc(c3)O[C@H]3C[C@@H](C2=O)N(c2ncnc4c2cnn4-c2ccc(F)cc2F)C3)CC1 [Example 32, (8S,11S)-10-[1-(2,4-difluorophenyl)pyrazolo[3,4-d]pyrimidin-4-yl]-18-methyl-13-[3-(4-methylpiperazin-1-yl)propyl]-7-oxa-10,13,18,19-tetrazapentacyclo[15.6.1.1^2,6.1^8,11.0^20,24]hexacosa-1(23),2(26),3,5,17(24),19,21-heptaen-12-one]			1100								3.2	11.5
Cn1nc2cccc3c2c1CCCN(CC1CC1)C(=O)[C@@H]1C[C@@H](CN1c1ncnc2c1cnn2-c1ccc(F)cc1F)Oc1nccc-3n1 [Example 19, (8S,11S)-13-(cyclopropylmethyl)-10-[1-(2,4-difluorophenyl)pyrazolo[3,4-d]pyrimidin-4-yl]-18-methyl-7-oxa-5,10,13,18,19,26-hexazapentacyclo[15.6.1.1^2,6.1^8,11.0^20,24]hexacosa-1(23),2(26),3,5,17(24),19,21-heptaen-12-one]			976								13.1	10.0
CN(C)CCN1CCCc2c3c(cccc3nn2C)-c2cccc(c2)O[C@H]2C[C@@H](C1=O)N(c1ncnc3c1cnn3-c1ccc(F)cc1F)C2 [Example 24, (8S,11S)-10-[1-(2,4-difluorophenyl)pyrazolo[3,4-d]pyrimidin-4-yl]-13-[2-(dimethylamino)ethyl]-18-methyl-7-oxa-10,13,18,19-tetrazapentacyclo[15.6.1.1^2,6.1^8,11.0^20,24]hexacosa-1(23),2(26),3,5,17(24),19,21-heptaen-12-one]			711								8.2	14.9
Cn1cnc(CN2CCCc3c4c(cccc4nn3C)-c3cccc(c3)O[C@H]3C[C@@H](C2=O)N(c2ncnc4c2cnn4-c2ccc(F)cc2F)C3)n1 [Example 16, (8S,11S)-10-[1-(2,4-difluorophenyl)pyrazolo[3,4-d]pyrimidin-4-yl]-18-methyl-13-[(1-methyl-1,2,4-triazol-3-yl)methyl]-7-oxa-10,13,18,19 tetrazapentacyclo[15.6.1.1^2,6.1^8,11.0^20,24]hexacosa-1(23),2(26),3,5,17(24),19,21-heptaen-12-one]			384								3.1	15.9
CN1CCCc2c3c(cccc3nn2C)-c2cccc(n2)O[C@H]2C[C@@H](C1=O)N(c1ncnc3c1cnn3-c1ccc(F)cc1F)C2 [Example 9, (8S,11S)-10-[1-(2,4-difluorophenyl)pyrazolo[3,4-d]pyrimidin-4-yl]-13,18-dimethyl-7-oxa-10,13,18,19,26-pentazapentacyclo[15.6.1.1^2,6.1^8,11.0^20,24]hexacosa-1(23),2(26),3,5,17(24),19,21-heptaen-12-one]	> 20000	> 10000	1580								17.8	11.6
Cn1nc2c(F)ccc3c2c1CCCN(CCCN1CCOCC1)C(=O)[C@@H]1C[C@@H](CN1c1ncnc2c1cnn2-c1ccc(F)cc1F)Nc1cccc-3n1 [Example 44, (8S,11S)-10-[1-(2,4-difluorophenyl)pyrazolo[3,4-d]pyrimidin-4-yl]-21-fluoro-18-methyl-13-(3-morpholinopropyl)-7,10,13,18,19,26-hexazapentacyclo[15.6.1.1^2,6.1^8,11.0^20,24]hexacosa-1(23),2(26),3,5,17(24),19,21-heptaen-12-one]			321								6.3	15.8
